The test system of the assay is P. falciparum 3D7 growth, pLDH absorbance. The experiment in a line: P. falciparum 3D7 growth inhibition, dose response, strain 3D7 (AID 2305).

Consider 63 compounds from PubChem BioAssay AID2305 (GlaxoSmithKline (GSK), 2010).

With `COCCNCc1ccc(-c2ccc(CN(C(=O)NC3CCCCC3)C3CCN(Cc4ccccc4)CC3)cc2)cc1`, the IC50 turned out to be 960 nM. As for `CC(C)CCNC(=O)C1Cc2c([nH]c3ccc(Br)cc23)C2(CCN(CCc3ccccc3)CC2)N1` (stereo not drawn), the figure is 690 nM; as for `Cn1c2c(c3ccccc31)CN(CCC1(c3ccc(Cl)c(Cl)c3)CN(C(=O)c3ccccc3)CCO1)CC2` (stereo not drawn), 310 nM; as for `Cc1ccc(NC(=O)Nc2ccc(Br)cc2)cc1OCCN(C)C`, 980 nM. Then `N#Cc1ccc2c(c1)CCN(CCC1CCC(NC(=O)/C=C/c3cccc4ccccc34)CC1)CC2` (stereo not drawn), with 730 nM; and `COc1cc(Cc2cnc(N)nc2N)cc(OCCCCC2NC(=O)NC2=O)c1OC` (stereo not drawn), with 710 nM. `C[C@H](Cc1ccc(C(=O)OCCOC(=O)c2ccc(C[C@@H](C)NC[C@H](O)c3cccc(C(F)(F)F)c3)cc2)cc1)NC[C@H](O)c1cccc(C(F)(F)F)c1` gave an IC50 of 820 nM. As for `CCN(CC)CCN1C(=O)C(O)(c2ccccc2Cl)c2c1cc(C(N)=O)cc2C(F)(F)F` (stereo not drawn), the figure is 700 nM.

The compound `Cc1cc(S(=O)(=O)N2CCCCC(c3ccc(C(F)(F)F)cc3)=N2)c(Cl)cc1Cl` yielded an IC50 of 500 nM. Then `O=C(NCc1ccccc1)c1nn(CCCN2CCC(N3CCCC3)CC2)cc1-c1ccc(Cl)c(Cl)c1`, with 670 nM; and `CNC(=O)CNC(=O)COc1cccc2ccccc12`, with 230 nM. Then `CC(C)c1cn2c3c(cc(C(=O)N[C@@H](Cc4ccccc4)[C@H](O)CNC4CCOCC4)cc13)N(C)S(=O)(=O)CC2`, with 50 nM. `CN(C)CCNCc1nc(-c2ccc3c(Nc4ccc(Oc5ccccc5)cc4)ccnc3c2)cs1` registered an IC50 of 740 nM. In the case of `Cn1nc(-c2ccc(CNC3CCc4ccccc43)cc2)c2cnc(NCCCN3CCCC3)nc21` (stereo not drawn), the IC50 is 1110 nM. Then `Cc1cc(N[C@@H](Cc2ccccc2)C(=O)NCc2cccc(F)c2)nc(NCCc2cccs2)n1`, with 620 nM; and `Cc1nc(N=C(N)N)nc2cc3c(cc12)CCC3`, with 920 nM. With `CN1CCCc2ccc(NC(=O)Nc3ccc(Cl)c(Cl)c3)cc2C1`, the IC50 is 600 nM. As for `CCn1c(-c2nonc2N)nc2c(Cl)ncc(O[C@H](CCN)c3ccccc3F)c21`, the figure is 1460 nM; as for `FC(F)(F)c1ccc2nc(-c3ccc(-c4ccc(CN5CCN(c6cnccn6)CC5)cc4)cc3)[nH]c2c1`, 690 nM. In turn, `CCOC(=O)CCCOc1cc(Cc2cnc(N)nc2N)cc(OC)c1OC` came in with an IC50 of 240 nM. For the compound `Cc1cccc(NC(=O)c2ccc(C(=O)NC3CCN(CC4CCCCC4)CC3)cc2)c1`, the IC50 is 810 nM.

The compound `CCc1ccc(-n2c(=O)c3cccnc3n2CC(=O)NC2CCCC2)cc1` gave an IC50 of 920 nM. As for `O=C(Nc1cccc(-c2ccc(-c3nc4ccc(C(F)(F)F)cc4[nH]3)cc2)c1)c1ccoc1`, the figure is 710 nM.

Regarding `Cc1cc(=O)c(-c2ccc(Oc3ccc(Cl)cc3Cl)cc2)c(C)[nH]1`, the IC50 was found to be 840 nM. Then `CN1CCC(N(Cc2ccc(N3CCN(Cc4c[nH]c5ccc(Cl)cc45)CC3)nc2)C2CC2)CC1`, with 1000 nM; and `CCc1c(C)c(C#N)c2nc3ccccc3n2c1NCc1ccco1`, with 700 nM; and `O=C(NC(=S)NCc1ccncc1)c1ccccc1`, with 1690 nM.

In turn, `CC(C)(C)OC(=O)Nc1cccc(-c2csc(N=C(N)N)n2)c1` registered an IC50 of 840 nM. Compound `COc1ccc(CN2CCC(NCc3ccc(C(F)(F)F)cc3)CC2)cc1` came in with an IC50 of 920 nM. Then `Fc1cccc(COc2ccc(Nc3ncnc4cc(/C=C/[C@@H]5CCCN5)sc34)cc2Cl)c1`, with 590 nM. Then `CN1CCCN(c2ccnc3cc4c(cc23)N(C(=O)c2ccc(Cl)cc2)CC4)CC1`, with 790 nM; and `NC(=O)c1cccc(C(=O)Nc2cccc(-c3cccc(-c4nc5ccc(F)cc5[nH]4)c3)c2)c1`, with 250 nM. As for `COc1ccccc1Cn1ccnc1SCC(=O)Nc1cc(C(F)(F)F)ccc1Cl`, the figure is 100 nM; as for `Cc1ccc2nc(-c3ccccc3)cc(NN=Cc3cccnc3)c2c1`, 690 nM. Turning to `Cc1cccc(CNc2nc(C)cc(N[C@@H](Cc3ccccc3)C(=O)NCCc3ccccc3)n2)c1`, the IC50 amounted to 670 nM. Then `CN(C)CCCNc1ncnc2c1[nH]c1ccc(Br)cc12`, with 320 nM; and `Cc1cnc(Nc2cccc(CCN3CCOCC3)c2)nc1NC(C)C`, with 740 nM; and `COC(=O)c1ccc(CC(C)NCC(O)c2cccc(Cl)c2Cl)cc1` (stereo not drawn), with 550 nM. Then `COc1cc(Cc2cnc(N)nc2N)cc(OCCCCc2nn[nH]n2)c1OC`, with 290 nM. As for `c1cc(-c2ccc(CNCc3ccsc3)cc2)cc(-c2nc3ccccc3[nH]2)c1`, the figure is 160 nM. On to `CCOc1ccc2ccccc2c1CNCCCCCCNCc1c(OCC)ccc2ccccc12`, for which the IC50 is 580 nM. Then `Cc1ccc(O)cc1Nc1ccnc2ccc(-c3cccc(CN(C)C)c3)cc12`, with 510 nM.

In turn, `CCCOc1ccc(N2C(N)=NC(N)=NC2(C)C)cc1` gave an IC50 of 490 nM. Compound `Cc1ccc(-c2nc3ccc(C(=O)NC4CCC(N5CCCc6ccc(C#N)cc6C5)CC4)cc3[nH]2)cc1` (stereo not drawn) came in with an IC50 of 1360 nM.

Compound `NC(=O)c1ccccc1OCC(=O)Nc1cccc(-c2ccc(-c3nc4ccc(C(F)(F)F)cc4[nH]3)cc2)c1` gave an IC50 of 650 nM. As for `Fc1ccc2nc(-c3cccc(-c4cccc(CNCc5cnn(-c6ccccc6)n5)c4)c3)[nH]c2c1`, the figure is 970 nM. As for `COc1cc(NC(=O)c2c(-c3c(F)cccc3Cl)noc2C)c(OC)cc1Cl`, the figure is 860 nM. As for `O=C(Cn1c(=O)cnc2ccccc21)Nc1cccc(C(=O)Nc2cccc(C(F)(F)F)c2)c1`, the figure is 280 nM; as for `COc1ccccc1C1CCN(C2CCC(NC(=O)/C=C/c3cccc(C(F)(F)F)c3)CC2)CC1` (stereo not drawn), 810 nM; as for `O=C(NCCCCCN1CCC(c2c[nH]c3ccccc23)CC1)Nc1cccc(Br)c1`, 1110 nM. Take `O=S(=O)(NCCN1CCCC1)c1ccc(-c2ccc(CNCc3ccccc3)cc2)s1`: the IC50 is 850 nM.

For `NC(=O)c1cc2nc(NC3CCC3)nc(Nc3cccc4[nH]ncc34)c2[nH]1`, the IC50 amounted to 730 nM.

In turn, `CS(=O)(=O)CCN(CCS(C)(=O)=O)Cc1ccc(-c2ccc3ncnc(Nc4ccc(OCc5cccc(F)c5)c(Cl)c4)c3c2)o1` returned an IC50 of 1020 nM.

In turn, `COC(=O)c1cccc(CNCc2cccc(-c3ccc(-c4nc5c(C)cccc5[nH]4)cc3)c2)c1` gave an IC50 of 320 nM. As for `COc1cc(C)c(NC(=O)c2cccc3c(=O)c(C)c(-c4ccccc4)oc23)cc1OC`, the figure is 1630 nM; as for `Cc1ccc(Nc2ccnc3ccc(C(F)(F)F)cc23)cc1O`, 960 nM; as for `CCc1ccc(CN2CCC(CN(C(=O)c3ccccc3)c3ccc(Cl)cc3)CC2)cc1`, 990 nM. As for `CNC(=O)c1ccccc1Nc1nc(Nc2ccc(N3CCN(C)CC3)nc2)ncc1C`, the figure is 1140 nM. With `O=C(Nc1cc(C(F)(F)F)cc(C(F)(F)F)c1)Nc1ccc(Cl)c(Cl)c1`, the IC50 stood at 240 nM. As for `CC(C)N1CCN(c2ccc(OCCCCN3CCN(c4cccc(Cl)c4Cl)CC3)cc2Cl)CC1`, the IC50 is 1040 nM. Then `Cc1cccc2[nH]c(-c3ccc(-c4ccc(CN5CCN(c6ccncc6)CC5)cc4)cc3)nc12`, with 160 nM; and `CCCCCCCn1c2c(c(=N)c3c1CCC3)CCCC2`, with 100 nM; and `O=C(/C=C/c1ccc(Cl)c(Cl)c1)NCCCCCCN1CCCN(C(=O)Nc2cccc(Cl)c2)CC1`, with 860 nM.
